According to PMC11435058, “Synthesis of New Thiazole-Privileged Chalcones as Tubulin Polymerization Inhibitors with Potential Anticancer Activities” (Pharmaceuticals, 2024):

Assays:
Assay in all cases: NCI-60 anticancer screen (SRB; single dose and five doses)
[1] = tested on: SR; settings: Homo sapiens
[2] = tested on: HS 578T; settings: Homo sapiens
[3] = tested on: EKVX; settings: Homo sapiens
[4] = tested on: HOP-92; settings: Homo sapiens
[5] = tested on: SF-268; settings: Homo sapiens
[6] = tested on: ACHN; settings: Homo sapiens
[7] = tested on: SN12C; settings: Homo sapiens
[8] = tested on: BT-549; settings: Homo sapiens
[9] = tested on: UACC-62; settings: Homo sapiens
[10] = tested on: A498; settings: Homo sapiens
[11] = tested on: SF-539; settings: Homo sapiens
[12] = tested on: HOP-62; settings: Homo sapiens
[13] = tested on: SF-295; settings: Homo sapiens
[14] = tested on: SK-MEL-28; settings: Homo sapiens
[15] = tested on: M14; settings: Homo sapiens
[16] = tested on: NCI-H460; settings: Homo sapiens
[17] = tested on: CAKI-1; settings: Homo sapiens
[18] = tested on: NCI-H322M; settings: Homo sapiens
[19] = tested on: SW-620; settings: Homo sapiens
[20] = tested on: DU-145; settings: Homo sapiens
[21] = tested on: MDA-MB-468; assay type: cell-based, human
How it was run: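 Readout was sulforhodamine B staining, read spectrophotometrically as percent growth against untreated controls. This followed a 48 h exposure to one 10μM dose across roughly 60 human tumor lines of the NCI screen.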

[22] = tested on: RPMI-8226; settings: Homo sapiens
[23] = tested on: PC-3; settings: Homo sapiens
[24] = tested on: SNB-75
[25] = tested on: MDA-MB-231/ATCC; settings: Homo sapiens
[26] = 48 h, read-out: Growth Percentage

## Cc1[nH]c(=S)sc1C(=O)/C=C/c1ccc(Cl)cc1 [2f, (E)-3-(4-Chlorophenyl)-1-(4-Methyl-2-Thioxo-2,3-Dihydrothiazol-5-yl)Prop-2-En-1-One]
[1]
  GI50: 3.55 µM
  IC50: 5.37 µM
[1]; read-out: LC50
  CC50: > 100 µM
[1]; read-out: TGI
  IC (TGI): 56.2 µM
[2]
  GI50: 21.4 µM
  IC50: > 100 µM
[2]; [26]
  activity at 10 µM: 48%
[2]; read-out: LC50
  CC50: > 100 µM
[2]; read-out: TGI
  IC (TGI): 77.6 µM
[3]
  GI50: 12.9 µM
  IC50: 24 µM
[3]; [26]
  activity at 10 µM: 41%
[3]; read-out: LC50
  CC50: 52.5 µM
[3]; read-out: TGI
  IC (TGI): 26.3 µM
[4]; HOP-92
  GI50: 11.5 µM
  IC50: 30.2 µM
[4]; HOP-92, 48 h, read-out: Growth Percentage
  activity at 10 µM: 34.8%
[4]; HOP-92, read-out: LC50
  CC50: 63.1 µM
[4]; HOP-92, read-out: TGI
  IC (TGI): 26.9 µM
[5]; SF-268
  GI50: 12 µM
  IC50: 24.6 µM
[5]; SF-268, 48 h, read-out: Growth Percentage
  activity at 10 µM: 67.9%
[5]; SF-268, read-out: LC50
  CC50: 64.6 µM
[5]; SF-268, read-out: TGI
  IC (TGI): 28.2 µM
[6]
  GI50: 13.8 µM
  IC50: 24 µM
[6]; [26]
  activity at 10 µM: 34.6%
[6]; read-out: LC50
  CC50: 51.3 µM
[6]; read-out: TGI
  IC (TGI): 26.9 µM
[7]
  GI50: 4.9 µM
  IC50: 10.7 µM
[7]; [26]
  activity at 10 µM: 4.62%
[7]; read-out: LC50
  CC50: 43.6 µM
[7]; read-out: TGI
  IC (TGI): 18.2 µM
[8]; BT-549
  GI50: 5.75 µM
  IC50: 20.9 µM
[8]; BT-549, 48 h, read-out: Growth Percentage
  activity at 10 µM: -14.4%
[8]; BT-549, read-out: TGI
  IC (TGI): 20.4 µM
[9]; UACC-62
  GI50: 9.77 µM
  IC50: 17 µM
[9]; UACC-62, 48 h, read-out: Growth Percentage
  activity at 10 µM: 33.9%
[9]; UACC-62, read-out: TGI
  IC (TGI): 22.4 µM
[10]; A498
  GI50: 15.8 µM
  IC50: 30.9 µM
[10]; A498, 48 h, read-out: Growth Percentage, A498, dose of 10 μM
  activity at 10 µM: 106%
[10]; A498, read-out: LC50
  CC50: 56.2 µM
[10]; A498, read-out: TGI
  IC (TGI): 29.5 µM
[11]; SF-539
  GI50: 6.92 µM
  IC50: 16.2 µM
[11]; SF-539, 48 h, read-out: Growth Percentage
  activity at 10 µM: -30.4%
[11]; SF-539, read-out: TGI
  IC (TGI): 20.4 µM
[12]; HOP-62
  GI50: 5.37 µM
  IC50: 12 µM
[12]; HOP-62, 48 h, read-out: Growth Percentage
  activity at 10 µM: -2.73%
[12]; HOP-62, read-out: LC50
  CC50: 72.4 µM
[12]; HOP-62, read-out: TGI
  IC (TGI): 22.9 µM
[13]; SF-295
  GI50: 15.8 µM
  IC50: 28.8 µM
[13]; SF-295, 48 h, read-out: Growth Percentage
  activity at 10 µM: 42.6%
[13]; SF-295, read-out: LC50
  CC50: 55 µM
[13]; SF-295, read-out: TGI
  IC (TGI): 29.5 µM
[14]; SK-MEL-28
  GI50: 14.5 µM
  IC50: 26.3 µM
[14]; SK-MEL-28, 48 h, read-out: Growth Percentage
  activity at 10 µM: 45.7%
[14]; SK-MEL-28, read-out: LC50
  CC50: 53.7 µM
[14]; SK-MEL-28, read-out: TGI
  IC (TGI): 28.2 µM
[15]; M14
  GI50: 14.1 µM
  IC50: 24.6 µM
[15]; M14, 48 h, read-out: Growth Percentage
  activity at 10 µM: 34.4%
[15]; M14, read-out: TGI
  IC (TGI): 32.4 µM
[16]; NCI-H460
  GI50: 12 µM
  IC50: 19.1 µM
[16]; NCI-H460, 48 h, read-out: Growth Percentage
  activity at 10 µM: 82.6%
[16]; NCI-H460, read-out: LC50
  CC50: 69.2 µM
[16]; NCI-H460, read-out: TGI
  IC (TGI): 28.8 µM
[17]; CAKI-1
  GI50: 4.47 µM
  IC50: 8.71 µM
[17]; CAKI-1, 48 h, read-out: Growth Percentage
  activity at 10 µM: 53.2%
[17]; CAKI-1, read-out: LC50
  CC50: 43.6 µM
[17]; CAKI-1, read-out: TGI
  IC (TGI): 17.4 µM
[18]
  GI50: 10.2 µM
  IC50: 19.9 µM
[18]; read-out: LC50
  CC50: 51.3 µM
[18]; read-out: TGI
  IC (TGI): 22.9 µM
[19]; SW-620
  GI50: 3.09 µM
  IC50: 4.37 µM
[19]; SW-620, 48 h, read-out: Growth Percentage
  activity at 10 µM: 8.02%
[19]; SW-620, read-out: LC50
  CC50: 38.9 µM
[19]; SW-620, read-out: TGI
  IC (TGI): 11.2 µM
[20]; DU-145
  GI50: 4.9 µM
  IC50: 8.91 µM
[20]; DU-145, 48 h, read-out: Growth Percentage
  activity at 10 µM: 7.29%
[20]; DU-145, read-out: LC50
  CC50: 42.7 µM
[20]; DU-145, read-out: TGI
  IC (TGI): 17.4 µM
[21]; Homo sapiens, 48 h, MDA-MB-468, dose of 10 μM, read-out: Growth Percentage
  activity at 10 µM: -21.2%
[21]; Homo sapiens, MDA-MB-468, MDA-MB-468, Breast Cancer, five dose
  IC50: 12 µM
[21]; Homo sapiens, MDA-MB-468, MDA-MB-468, five doses
  IC50: 2.51 µM
[21]; Homo sapiens, MDA-MB-468, Breast Cancer, five dose
  GI50: 2.51 µM
[21]; Homo sapiens, MDA-MB-468, Breast Cancer, five dose, read-out: LC50 (the source's name)
  CC50: 30.2 µM
[21]; MDA-MB-468, Breast Cancer, five dose
  TGI: 8.32 µM
[22]; RPMI-8226
  GI50: 2.4 µM
[22]; RPMI-8226, 48 h, read-out: Growth Percentage
  activity at 10 µM: 13.8%
[22]; RPMI-8226, RPMI-8226, five doses
  IC50: 2.4 µM
[22]; RPMI-8226, five-dose, Leukemia RPMI-8226
  IC50: 4.68 µM
[22]; RPMI-8226, read-out: LC50
  CC50: > 100 µM
[22]; RPMI-8226, read-out: TGI
  IC (TGI): 8.32 µM
[23]; PC-3
  GI50: 5.37 µM
  IC50: 9.77 µM
[23]; PC-3, read-out: LC50
  CC50: 81.3 µM
[23]; PC-3, read-out: TGI
  IC (TGI): 23.4 µM
[24]; Homo sapiens, SNB-75
  GI50: 2.19 µM
  IC50: 8.51 µM
[24]; Homo sapiens, SNB-75, read-out: LC50
  CC50: 28.8 µM
[24]; five-dose, CNS Cancer SNB-75
  TGI: 6.76 µM
[25]; MDA-MB-231
  GI50: 16.2 µM
  IC50: 30.9 µM
[25]; MDA-MB-231, 48 h, read-out: Growth Percentage
  activity at 10 µM: 39.3%
[25]; MDA-MB-231, read-out: LC50
  CC50: 61.7 µM
[25]; MDA-MB-231, read-out: TGI
  IC (TGI): 31.6 µM
